# Inconclusive results and toxic doses are left out.
# System: BDF1 mice, B16 melanoma ip, median survival T/C
# Test: NCI In Vivo Anticancer Drug Screen. Data for tumor model B16 Melanoma (intraperitoneal) in B6D2F1 (BDF1) mice
# Conditions: endpoint: median survival time, higher = longer survival
# In short: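 Read-out: survival or tumor size, given as treated/control ratio. Controls received vehicle only; animals bore transplantable tumors.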
# [1] = dose: 25.0 mg/kg/injection, schedule: Q01DX009 (ip), vehicle: saline with Tween-80
# [2] = dose: 50.0 mg/kg/injection, schedule: Q01DX009 (ip), vehicle: saline with Tween-80
# [3] = dose: 100.0 mg/kg/injection, schedule: Q01DX009 (ip), vehicle: saline with Tween-80
# [4] = dose: 25.0 mg/kg/injection, schedule: Q01DX009 (ip), vehicle: Klucel (hydroxypropylcellulose) (HPC)
# [5] = dose: 50.0 mg/kg/injection, schedule: Q01DX009 (ip), vehicle: Klucel (hydroxypropylcellulose) (HPC)
# [6] = dose: 100.0 mg/kg/injection, schedule: Q01DX009 (ip), vehicle: Klucel (hydroxypropylcellulose) (HPC)
# [7] = dose: 200.0 mg/kg/injection, schedule: Q01DX009 (ip), vehicle: Klucel (hydroxypropylcellulose) (HPC)
compound,measurement,setting,value
CC1(C)CC1(Br)Br,T/C,"dose: 6.25 mg/kg/injection, schedule: Q01DX009 (ip), vehicle: saline with Tween-80",112 % of control
same,T/C,"dose: 12.5 mg/kg/injection, schedule: Q01DX009 (ip), vehicle: saline with Tween-80",110 % of control
same,T/C,[1],118 % of control
same,T/C,[2],102 % of control
same,T/C,[3],110 % of control
c1cc[c]([Sn]([S][Sn]([c]2ccccc2)([c]2ccccc2)[c]2ccccc2)([c]2ccccc2)[c]2ccccc2)cc1,T/C,[2],99 % of control
same,T/C,[3],93 % of control
same,T/C,"dose: 200.0 mg/kg/injection, schedule: Q01DX009 (ip), vehicle: saline with Tween-80",92 % of control
same,T/C,"dose: 400.0 mg/kg/injection, schedule: Q01DX009 (ip), vehicle: saline with Tween-80",86 % of control
CCC1(C)c2cc(C)c(C(C)=O)cc2C(C)(C)C1C (centres undefined),T/C,[1],107 % of control
same,T/C,[2],99 % of control
CC(=O)O[C@]1(C(C)=O)CC[C@H]2[C@@H]3C[C@H](C)C4=CC(=O)CC[C@]4(C)[C@H]3CC[C@@]21C,T/C,"dose: 12.5 mg/kg/injection, schedule: Q01DX009 (ip), vehicle: Klucel (hydroxypropylcellulose) (HPC)",120 % of control
same,T/C,[4],117 % of control
same,T/C,[5],100 % of control
same,T/C,[6],96 % of control
same,T/C,[7],89 % of control
same,T/C,"dose: 400.0 mg/kg/injection, schedule: Q01DX009 (ip), vehicle: Klucel (hydroxypropylcellulose) (HPC)",96 % of control
same,T/C,"dose: 800.0 mg/kg/injection, schedule: Q01DX009 (ip), vehicle: Klucel (hydroxypropylcellulose) (HPC)",89 % of control
O=[N+]([O-])c1cc([As](=O)(O)O)ccc1Cl,T/C,[4],100 % of control
same,T/C,[5],96 % of control
same,T/C,[6],96 % of control
CCCCCCCC(=O)Nc1ccc(C)cc1,T/C,"dose: 50.0 mg/kg/injection, schedule: Q04DX003 (ip), vehicle: Klucel (hydroxypropylcellulose) (HPC)",89 % of control
same,T/C,"dose: 100.0 mg/kg/injection, schedule: Q04DX003 (ip), vehicle: Klucel (hydroxypropylcellulose) (HPC)",91 % of control
CCSc1nc2nccnc2c(=O)[nH]1,T/C,[6],102 % of control
same,T/C,[7],97 % of control
Cc1ccc2nc(-c3ccc(N=Cc4ccccc4O)cc3)sc2c1,T/C,"dose: 25.0 mg/kg/injection, schedule: Q01DX009 (ip), vehicle: olive oil, sesame oil, peanut oil",87 % of control
same,T/C,"dose: 50.0 mg/kg/injection, schedule: Q01DX009 (ip), vehicle: olive oil, sesame oil, peanut oil",86 % of control
COC(=O)/C(C)=C/C=C/C(OC)C(OC(N)=O)/C(C)=C/C(C)C(O)C(CC(C)CC1=C(N)C(=O)C=C(N)C1=O)OC (centres undefined),T/C,"dose: 12.5 mg/kg/injection, schedule: Q01DX005 (ip), vehicle: other",94 % of control
same,T/C,"dose: 25.0 mg/kg/injection, schedule: Q01DX005 (ip), vehicle: other",95 % of control
same,T/C,"dose: 50.0 mg/kg/injection, schedule: Q01DX005 (ip), vehicle: other",108 % of control
same,T/C,"dose: 100.0 mg/kg/injection, schedule: Q01DX005 (ip), vehicle: other",93 % of control
CNNCc1ccc(C(=O)NC(C)C)cc1,T/C,"dose: 37.5 mg/kg/injection, schedule: Q01DX009 (ip), vehicle: water",121 % of control
same,T/C,"dose: 40.0 mg/kg/injection, schedule: Q01DX009 (ip), vehicle: saline with Tween-80",108 % of control
same,T/C,"dose: 54.0 mg/kg/injection, schedule: Q01DX009 (ip), vehicle: saline",123 % of control
same,T/C,"dose: 90.0 mg/kg/injection, schedule: Q01DX009 (ip), vehicle: saline",120 % of control
same,T/C,"dose: 250.0 mg/kg/injection, schedule: Q01DX009 (ip), vehicle: saline",123 % of control
same,T/C,"dose: 320.0 mg/kg/injection, schedule: Q01DX009 (ip), vehicle: saline with Tween-80",98 % of control
CC(=O)OC1C(C)OC(OC(=O)C2CCC3C(C2)OC2(CC(OC(=O)/C=C/c4ccccc4)C(C)CO2)C32CO2)C(OC2OC(C)C(O)C(OC(C)=O)C2O)C1O (centres undefined),T/C,"dose: 6.0 mg/kg/injection, schedule: Q01DX009 (ip), vehicle: saline + alcohol",152 % of control
same,T/C,"dose: 12.0 mg/kg/injection, schedule: Q01DX009 (ip), vehicle: saline + alcohol",186 % of control
same,T/C,"dose: 24.0 mg/kg/injection, schedule: Q01DX009 (ip), vehicle: saline + alcohol",205 % of control
same,T/C,"dose: 48.0 mg/kg/injection, schedule: Q01DX009 (ip), vehicle: saline + alcohol",193 % of control
N#CCCCc1ccccc1,T/C,[5],112 % of control
same,T/C,[6],106 % of control
c1ccc(Oc2ccccn2)cc1,T/C,[5],111 % of control
same,T/C,[6],117 % of control
same,T/C,[7],123 % of control
CC(=O)NSCC(NC(=O)OC(C)(C)C)C(=O)O (centres undefined),T/C,"dose: 50.0 mg/kg/injection, schedule: Q01DX009 (ip), vehicle: saline",100 % of control
same,T/C,"dose: 100.0 mg/kg/injection, schedule: Q01DX009 (ip), vehicle: saline",101 % of control
same,T/C,"dose: 200.0 mg/kg/injection, schedule: Q01DX009 (ip), vehicle: saline",96 % of control

# From PubChem BioAssay AID192 (DTP/NCI, 2004)
